SMILES strings stand for the structures. In brackets after ≈: the same amount, converted by molar mass.

In data set [1] the test system is T. gondii tachyzoites (RH strain). The data set is described as follows: T. gondii growth inhibition in HFF monolayers, tritiated uracil uptake. Format: cell-based, Toxoplasma gondii. The method, then:
The improvements are based on microscopic visual imspection of infected and inhibitor treated cultures, and on quantitation of nucleic acid synthesis of the parasite by measure intake of ^3H uracil onto the parasite's nucleic acid. Uracil is not utilized by mammalian cells. […] Only the RH strain tachyzoites, cultured for up to 72 hours, had been used in previously reported assays. The use of Me49, Ptg, and R5 mutant are unique aspects of the methods used in these assays in this invention.
(§1) In these assays toxicity of a candidate inhibitor was assessed by its ability to prevent growth of human foreskin fibroblasts (HFF) after 4 days and after 8 days as measured by tritiated thymidine uptake and microscopic evaluation. Confluent monolayers of HFF were infected with tachyzoites and bradyzoites. Inhibitor was added one hour later. Non-toxic doses were used in parasite growth inhibition assays. Parasite growth was measured by ability to incorporate tritiated uracil during the last 18 hours of culture.
(§2) First the toxicity of gabaculine was assessed by its ability to prevent growth of human foreskin fibroblasts (HFF) as measured by ^3H-thymidine uptake and microscopic evaluation. Non-toxic doses were used in parasite growth inhibition assays. in vitro parasite growth inhibition assays included confluent monolayers of HFF infected with tachyzoites (RH) or mutant Me49 (R5). Gabaculine was added 1 hour later. Parasite growth was measured by the ability to incorporate 3H-uracil during the last 18 hours of culture. In addition, parasite growth was evaluated microscopically in Giemsa stained slides.
Confluent monolayers of HFF cells, grown in 96-well plates are infected with T. gondii tachyzoites of the RH strain and serial dilutions of anti-microbial compound are applied 1 hour later. T. gondii growth is assessed in these cultures by their ability to incorporate tritiated uracil (2.5 μCi/well) added during the last 18 hours of culture. After harvesting cells with an automatic cell harvester, uracil incorporation is measured by liquid scintillation.

For a further data set, the system named is C. parvum. The data set is described as follows: C. parvum infection of MDBKF5D2 cell monolayers, immunofluorescence assay at 48 hours. The data set is classed as cell-based, Cryptosporidium parvum. The settings on record: for approximate 95% Cl count (mean parasite count per field): media alone ~1800. The method, then: C. parvum oocysts at 50,000/well were incubated at 37° C. (8% CO2) on confluent MDBKF5D2 cell monolayers in 96 well microtiter plates with the following concentrations of each drug. […] The level of infection of each well was determined and analyzed by an immunofluorescence assay at 48 hours using an antibody to C. parvum sporozoites made in rabbits at a concentration of 0.1%. Fluorescein-conjugated goat anti-rabbit antibody was used at a concentration of 1%.
C. parvum oocysts at 50,000/well were incubated with each drug (PRM=paromomycin which is the positive control, NPMG, gabaculine, SHAM, 8-hydroxyquinoline) at 37° C. (8% carbon dioxide) on confluent MDBKF5D2 cell monolayers in 96 well microtiter plates. The level of infection of each well was determined and analyzed by an immunofluorescence assay at 48 hours using as an antibody C. parvum sporozoite rabbit anti-serum (0.1%), and using fluorescein-conjugated goat anti-rabbit antibody (1%). Data are expressed as mean parasite count/field when 16 fields counted at 10× magnification “s.d. of the mean” (FIG. 6).

Data set [2] has as its system D6 clone of Plasmodium falciparum. Put plainly: P. falciparum in vitro growth assay (Milhous et al.), D6 clone. The data set is classed as cell-based. As to conditions: Plasmodium falciparum, D6 clone.
Data set [3] relates to W2 clone of Plasmodium falciparum. The data set is described as follows: P. falciparum in vitro growth assay (Milhous et al.), W2 clone. The data set is classed as cell-based. The settings on record: Plasmodium falciparum, W2.
The next data set relates to P. falciparum. Put plainly: P. falciparum in vitro growth assay, clone not stated. Format: cell-based, Plasmodium falciparum. The method, then:
This assay is performed in folate deficient RPMI 1640 over a 66 hour incubation in plasma as described by Milhous et al. (1985). Both the W2 clone DHFR resistant phenotype and the D6 clone are used (Odula et al., 1988) (Table 3).

In the next data set the test system is EPSP synthase. Put plainly: T. gondii EPSP synthase enzyme assay (HPLC detection of EPSP). The settings on record: 1 mM. The data set is classed as biochemical. The protocol: Assays for 4-aminobenzoate and 4-amino-4-deoxychorismate are performed as described previously.” Enzyme Assays: The 5-enolpyruvylshikimate-3-phosphate (EPSP) synthase assay entailed monitoring the generation of EPSP using HPLC. Reaction components were separated using a Hypersil H3APS2 HPLC column (Hichrom Limited, Reading, UK) and a NaH2PO4 elution gradient (50-400 mM). UV spectra (200-300 nm) of the colume eluate were collected to identify eluants. […] The peaks at 215 nm were integrated; the EPSP produced was quantified using a standard curve of authentic EPSP. Parasite extracts were produced at 4° C. by suspension of pure tachyzoites in extraction buffer (50 mM Tris.HCl, pH 7.5, containing complete TM protease inhibitor cocktail [Boehringer Mannheim, 1 tablet per 50 ml buffer]), sonication 3 times for 3 seconds at 30 second intervals, and centrifugation at 12000 g for 15 min. The resulting supernatant was diluted 6-fold with extraction buffer and loaded onto a ResourceQ column (1 ml, Pharmacia) equilibrated with extraction buffer. The bound protein was eluted in a single step using extraction buffer containing 500 mM Kcl. The eluted material was used for enzyme assay. The assay mix contained 1 mM phosphoenolpyruvate, 1 mM SP and 50 mM HEPES, pH 7.5. […] Protein concentrations of lysates were determined using the Lowry method. […]

The subject of data set [4] is mutant R5 strain of T. gondii. Put plainly: Growth of mutant R5 strain of T. gondii in HFF, uracil uptake over 8 days. Format: cell-based, Toxoplasma gondii. As to conditions: 20 mM gabaculine or P/S, 8 days in culture. The method, then:
Improvements were developed in the assays reported by Mack et al. (1984) and Holfels et al. (1994) to measure T. gondii replication in tissue culture. The improvements are based on microscopic visual imspection of infected and inhibitor treated cultures, and on quantitation of nucleic acid synthesis of the parasite by measure intake of ^3H uracil onto the parasite's nucleic acid. Uracil is not utilized by mammalian cells. […]
First the toxicity of gabaculine was assessed by its ability to prevent growth of human foreskin fibroblasts (HFF) as measured by ^3H-thymidine uptake and microscopic evaluation. […] Parasite growth was measured by the ability to incorporate 3H-uracil during the last 18 hours of culture. In addition, parasite growth was evaluated microscopically in Giemsa stained slides.
This mutant strain is atovaquone resistant and posseses certain characterisitics of the tachyzoite stage and certain characteristics of the bradyzoite stage. T. gondii growth is measure by their ability to incorporate tritiated uracil and is expressed as counts/minute (CPM) on the Y-axis. […]

Data set [5] has as its system human foreskin fibroblasts (HFF). The data set is described as follows: Toxicity to human foreskin fibroblasts, tritiated thymidine uptake and microscopy. The data set is classed as cell-based. As to conditions: similar concentrations (20 mM). The method, then: as §1, §2
Inhibitor compounds are tested over a range of concentrations for toxicity against mammalian cells by assessing their ability to prevent cell growth as measured by tritiated thymidine uptake and inspection of the monolayer using microscopic evaluation. […]

As usually defined, the inhibition is the drop in the measured response relative to a control, in per cent. Take `O=C(O)CNCP(=O)(O)O` [NPMG, N-(phosphonomethyl) glycine]: in data set [1] (NPMG 3.12 mM, 4 day assay, medium around 72,000), the “restriction of CPM (tritiated uracil incorporation)” value is reported as “around 60%”. Further, the “counts (tritiated uracil incorporation)” value in data set [1] (NPMG 4.5 mM, 4 days, medium around 72,000, no RH around 2,000 CPM) is listed as “about 12,000 CPM”. Further, the “product rescue by PABA of NPMG inhibition of nucleic acid synthesis” value in data set [1] (PABA at increasing concentrations added to cultures) is listed as “PABA abrogates the inhibitory effects”. Also, in data set [1] (Toxoplasma gondii, 96 h, NPMG 4.5 mM, 4 day assay, read-out: inhibition of parasite growth), the inhibition at 4500 µM is around 80%. Moreover, in the data set on C. parvum, the “product rescue by PABA of NPMG effect on C. parvum” value is given as “not abrogated by PABA”. The “approximate 95% Cl count (mean parasite count per field)” value was around 1200 count/field in the data set with C. parvum (NPMG 0.45 μg/ml), around 900 count/field in the data set with C. parvum (NPMG 4.5 μg/ml) and around 1200 count/field in the data set with C. parvum (NPMG 0.045). Also, the IC50 in data set [2] (read-out: IC 50) was found to be 0.823 µg/mL (≈ 4.87 µM); in data set [3] it was 1.72 µg/mL (≈ 10.1 µM). For the same compound, the IC90 in data set [2] (read-out: IC 90) was found to be 2.51 µg/mL (≈ 14.8 µM); in data set [3] it was 3.4 µg/mL (≈ 20.1 µM). For the same compound, the “product rescue of glyphosate inhibition of in vitro growth of asexual erythrocytic forms” value in the data set on P. falciparum (PABA and folate) is “PABA and folate antagonism of growth inhibition”. The “inhibition of T. gondii EPSP synthase enzyme activity” value in the data set with EPSP synthase is “inhibition of EPSP synthase enzyme activity”.

`NC1C=CC=C(C(=O)O)C1` (stereo not drawn) [gabaculine, 3-amino-2,3-dihydrobenzoic acid]: in data set [1] (RH, 20 mM gabaculine or P/S, uracil CPM), the “parasite growth over the 8 day time course” value is given as “restricted”. This compound had an inhibition at 5000 µM in data set [1] (Toxoplasma gondii, 96 h, gabaculine 5 mM, 4 days, medium about 36,000 CPM) of around 60%. The “restriction of CPM (tritiated uracil incorporation)” value in data set [1] (gabaculine 5 mM, 4 day assay, medium around 45,000 CPM) is given as “around 50%”. For the same compound, the “counts (tritiated uracil incorporation)” value in data set [1] (gabaculine 20 mM, 4 days, medium around 45,000, no RH around 2,000 CPM) is reported as “about 5,000 CPM”. For the same compound, the “period over which parasite growth was restricted” value in data set [4] was “over the first 6 days of culture, after which a marked increase in parasite growth was detected”. In addition, the “toxicity to the foreskin fibroblasts” value in data set [5] was “no toxicity”. For the same compound, the “approximate 95% Cl count (mean parasite count per field)” value in the data set on C. parvum (gabaculine 0.2 μg/ml) is given as around 1300 count/field; in the data set on C. parvum (gabaculine 2 μg/ml), around 600 count/field; with C. parvum (gabaculine 20 μg/ml) it was around 200 count/field. The same compound returned an IC50 with P. falciparum (Plasmodium falciparum) of at least 45 µg/mL.

The values are drawn from patent publication US20030186352A1, “Apicomplexan chorismate synthase sequences and an inhibitor of the shikimate pathway” (priority 1998, published 2003).
